Test results reported in paper PMC2215335 (The Journal of General Physiology, 1977).
“Also recorded” adds a separate entry of the source.

What was measured:
[1] = test system: membrane chloride conductance (GCl), rat diaphragm; assay: Inhibition of membrane chloride conductance; assay type: cell-based; conditions: for Relative potency: potency of 1 for a compound having a Ki of 1 x 10^-2 M; for Reduction of GCl: 10-s M (so in the source)
[2] = test system: residual conductance in chloride-free solution (largely attributable to K+), rat diaphragm; assay: Residual conductance in chloride-free solution; assay type: cell-based
[3] = test system: Cl- current, rat diaphragm fibers; assay: Current-voltage relationships of diaphragm fibers; assay type: cell-based; conditions: 2 x 10^-5 M 9-AC, 20 ms after onset of hyperpolarizing pulses, all voltage levels
rat diaphragm fibers = assay: Resting membrane potential of diaphragm fibers; assay type: cell-based; conditions: fibers exposed to 2 x 10-s M 9-AC (so in the source); SD
[4] = test system: membrane resistance, rat diaphragm; assay: Membrane resistance of diaphragm in vitro during perfusion and wash; assay type: cell-based
[5] = test system: membrane anion conductances (GCl, GBr, GNO3, GI), rat diaphragm; assay: Anion conductance sequence in rat diaphragm; assay type: cell-based
[6] = test system: membrane anion permeability, rat diaphragm; assay: Anion permeability sequence, bi-ionic potential shift measurements; assay type: cell-based
[7] = test system: red blood cell (RBC) surface charge; assay: Electrophoretic mobility of erythrocytes; set-up: species or system human; conditions: concentrations 0.1 to 100 times the Ki

Row | Molecule | Relative potency [1] | Effects on residual conductances (GK) [2] | further results
1 | O=C(O)c1c(Cl)ccc(Cl)c1[N+](=O)[O-] [3,6-Dichloro-2-nitro BA] | 6.0 | 0 | 
2 | Cc1ccc(C(=O)O)c(C)c1 [2,4-Dimethyl BA] | 6.2 | + | 
3 | O=C(O)c1cc(Cl)cc(Cl)c1 [3,5-Dichloro BA] | 40 | 0 | 
4 | O=C(O)c1c(Cl)ccc(Cl)c1Cl [2,3,6-Trichloro BA] | 10.5 | 0 | 
5 | Cc1cc(C(=O)O)cc(C)c1[N+](=O)[O-] [3,5-Dimethyl-4-nitro BA] | 3.6 | 0 | 
6 | Cc1c(C)c(C(=O)O)c(C)c(C)c1C(=O)O [2,3,5,6-Tetramethyl-4-COOH-BA] | < 0.1 | 0 | Effect on GCl (in words) ([1]; rat diaphragm): without detectable effect on Gel
7 | Cc1cc(C)cc(C(=O)O)c1 [3,5-Dimethyl BA] | 6.7 | 0 | 
8 | Cc1cc(C(=O)O)cc(C)c1N [3,5-Dimethyl-4-amino BA] | < 0.3 |  | 
9 | Cc1ccc(C(=O)O)cc1C [3,4-Dimethyl BA] | 5.0 | 0 | 
10 | O=C(O)c1c2ccccc2cc2ccccc12 [9-AC, anthracene-9-COOH] | 909 | 0 | Reduction of GCl ([1]; depolarizing pulses): 54%; Reduction of GCl ([1]; hyperpolarizing pulses): 58%; Percent reduction in observed GCl at varied external Ca2+ ([1]; 10^-5 M 9-AC, external [Ca2+] 2 mM, 10 mM and 20 mM): the same; Early I-V relationships relative to control values [3]: about 30 % of control; Average resting membrane potential (RMP) (rat diaphragm fibers): 68.3 ± 3.8 mV; Time for increase in membrane resistance to reach new steady value ([4]; 10^-5 M 9-AC in Ringer's): ≤ 10 min; Membrane resistance in chloride-free Ringer's ([4]; methylsulfate-substituted chloride-free Ringer's, same concentration (10^-5 M)): unaffected; Time for membrane resistance to return to near control levels ([4]; reperfusion with normal Ringer's after 10^-5 M 9-AC): 30 to 60 min; Anion conductance sequence ([5]; 8 x 10^-6 M 9-AC (table prints 8 x 10-e M)): CI>I>NO3>Br; Change of GI ([5]; 9-AC at 5 x 10^-5 M): appeared increased relative to control values; Reduction of GCl ([5]; 9-AC at 5 x 10^-5 M): > 90%; Change of GBr ([5]; 9-AC at 8 x 10^-6 M): changed little; Change of GI ([5]; 9-AC at 8 x 10^-6 M): appeared to increase; Reduction of GCl ([5]; 9-AC at 8 x 10^-6 M): approximately 50%; Effect on GI at concentrations reducing GCl by >90% ([5]; 9-AC concentrations reducing GCl by more than 90 percent): slight augmentation of G(I); also recorded: slight augmentation of GI; Relative permeability I- vs Cl- ([6]; 5 x 10^-5 M 9-AC, 30 min): more permeable to I- than to el-; Red blood cell (RBC) electrophoretic mobility [7]: No change
11 | O=C(O)c1c(Cl)c(Cl)cc(Cl)c1Cl [2,3,5,6-Tetrachloro BA] | 47 | + | 
12 | Cc1cc(C(=O)O)cc(C)c1O [3,5-Dimethyl-4-hydroxy BA] | < 0.1 | 0 | 
13 | 3,~-Dichloro-2-amino BA | 76 | + | 
14 | O=C(O)c1c(Cl)c(Cl)c(Cl)c(Cl)c1Cl [Pentachloro BA] | 125 | + | 
15 | Cc1ccc(C)c(C(=O)O)c1 [2,5-Dimethyl BA] | 32 | 0 | 
16 | O=C(O)c1cc(Cl)c(Cl)cc1C(=O)O [4,5-Dichioro-2-COOH BA] | 0.63 | 0 | 
17 | O=C(O)c1ccc(Cl)c(Cl)c1 [3,4-Dichloro BA] | 38 | 0 | 
18 | O=C(O)COc1ccc(Cl)cc1Cl [2,4-Dichloro phenoxyacetic acid] | 5.0 |  | 
19 | Cc1cc(C)c(C(=O)O)cc1C [2,4,5-Trimethyl benzoic acid] | 152 | + | Permeability sequence inversion ([6]; increasing analog concentration): same sequence inversions were observed; Red blood cell (RBC) electrophoretic mobility [7]: No change
20 | Cc1cc(C)c(C(=O)O)c(C)c1 [2,4,6-Trimethyl BA] | 2.5 | 0 | 
21 | O=C(O)c1ccccc1 [Benzoic acid (BA), Benzoic acid] |  | 0 | 
22 | O=C(O)c1c(Cl)cccc1Cl [2,6-Dichloro BA] | 5.0 | 0 | 
23 | Cc1cc(C)c(C)c(C(=O)O)c1C [2,3,5,6-Tetramethyl BA] | 16.7 | 0 | 
24 | O=C(O)c1cc(Cl)ccc1Cl [2,5-Dichloro BA] | 33.3 | 0 | 
25 | Cc1ccc(C)c(S(=O)(=O)O)c1 [2,5-Dimethyl benzene SOsH] | < 0.3 | 0 | 
